Source: paper PMC11435438, “Cyclin-Dependent Kinase 8 Represents a Positive Regulator of Cytomegalovirus Replication and a Novel Host Target for Antiviral Strategies” (Pharmaceutics, 2024)
Like-named read-outs stand apart in the source and are kept apart here.

What was measured:
GPCMV-GFP = GPCMV-GFP replication assay in GPEFs; assay type: cell-based, guinea pig cytomegalovirus; settings: Caviid betaherpesvirus 2, read-out: EC50 GPCMV
Excerpt: (§1) Similarly, 2 × 10^4 primary embryonic guinea pig fibroblasts GPEFs/96-well, or 1.35 × 10^4 HFFs/96-well, or 2 × 10^4 rat REFs/96-well, or 2 × 10^4 murine MEFs/96-well, were cultivated for infection with GPCMV-GFP, RhCMV-GFP, ChCMV, RCMV-mCherry, or MCMV-GFP, respectively (all approx. MOI of 0.01 referring to 1 × TCID25), and were used for the assessment of antiviral drug activity. To this end, cells were fixed 7 d p.i. (RCMV-mCherry 4 d p.i.), before GFP or mCherry expression was quantified using the Victor X4 microplate reader, or other viral replication markers were measured as explained for the individual experiments. ChCMV replication in HFFs was monitored and quantified by the use of Anti-Cytomegalovirus Antibody Alexa Fluor™ 488. For immunofluorescence staining with Anti-Cytomegalovirus Antibody Alexa Fluor™ 488 (Sigma Aldrich, St. Louis, MO, USA; solution in PBS with 1% FCS), the infected cells were fixed at 7 d p.i. with 10% formalin and permeabilized with 0.2% Triton-x-100. Cell nuclei were counterstained using Höchst dye to be measured using the ImageXpress Pico (Molecular Devices, LLC, San Jose, CA, USA). Mean EC50 values of antiviral efficacy were calculated on the basis of three experimental replicates or as indicated (measurement of fluorescence values in quadruplicate), and percentage values were provided relative to the solvent control (DMSO).
To address cell viability after compound treatment, a NR uptake assay was performed. Uninfected cells were seeded at equal numbers as for antiviral replication assays and treated with compounds or solvent control. […] NR fluorescence was quantified using the Victor X4 microplate reader (PerkinElmer, Waltham, MA, USA) (560/630 nm). For the AB cell viability assay, which was also used to quantify virus-induced cytopathogenicity (particularly in the case of GPCMV in GPEFs), cells were seeded at equal numbers as for antiviral replication assays and incubated with a medium containing 25 ng/mL AB (resazurin; Ann Arbor, MI, USA), incubated for 6 h at 37 °C, and used for measurement identical with NR.

HCMV AD169-GFP = assay: microbe, parasite or virus in culture; assay type: cell-based, human cytomegalovirus
Protocol: (i.e., 1 × TCID25/7d). Immediately after virus adsorption, the cells were treated with antiviral compounds or solvent control (DMSO). Infections were performed in biological quadruplicates, or as indicated for individual experiments. The cells were fixed by the addition of 150 µL 10% formalin/well 7 d p.i. (Merlin-GFP 14 d p.i.), and washed with PBS. For GFP or YFP quantitation, the Victor X4 microplate reader (PerkinElmer, Waltham, MA, USA) was primarily used, or as a very sensitive alternative, the ImageXpress® Pico device (Molecular Devices LLC, San Jose, CA, USA). Mean EC50 values of antiviral efficacy were calculated on the basis of three experimental replicates or as indicated (measurement of fluorescence values in quadruplicate), and percentage values were provided relative to the solvent control (DMSO).

[1] = Neutral Red uptake cell viability assay in mock-infected U373 cells; assay type: cell-based; settings: human, read-out: CC50 Mock-inf.
Protocol: To address cell viability after compound treatment, a NR uptake assay was performed. Uninfected cells were seeded at equal numbers as for antiviral replication assays and treated with compounds or solvent control. The treatment was performed for HFFs (7 d), U373 (14 d), A549 (3 d), J-Jhan (14 d), and non-dox-induced iSLK.219 cells (3 d). At the end of the treatment period, 40 µg/mL of Neutral Red (NR) was added and incubated for 2–4 h at 37 °C, before the NR-containing supernatant was removed. Cells were destained using a solution containing 50% ethanol, 1% acetic acid, and 49% water. NR fluorescence was quantified using the Victor X4 microplate reader (PerkinElmer, Waltham, MA, USA) (560/630 nm). For the AB cell viability assay, which was also used to quantify virus-induced cytopathogenicity (particularly in the case of GPCMV in GPEFs), cells were seeded at equal numbers as for antiviral replication assays and incubated with a medium containing 25 ng/mL AB (resazurin; Ann Arbor, MI, USA), incubated for 6 h at 37 °C, and used for measurement identical with NR.

MCMV-GFP = MCMV-GFP replication assay in MEFs; assay type: cell-based, murine cytomegalovirus; settings: Murid betaherpesvirus 1, read-out: EC50 MCMV
Excerpt: as §1

[2] = Human betaherpesvirus 5, AD169, HFF, read-out: EC50 AD169-GFP
[3] = Human betaherpesvirus 5, AD169, read-out: EC50 HCMV
[4] = mock-infected (uninfected) U373 cells

SMILES	EC50 (GPCMV-GFP)	EC50 (HCMV AD169-GFP; [2])	EC50 (HCMV AD169-GFP; [3])	CC50 at 14 d [1, 4]	EC50 (MCMV-GFP)	CC50 at 14 d ([1]; U373)
CN(C)C(=O)Cn1cc(-c2ccc(-c3cncc4ccccc34)cc2)cn1 [BI-1347]	1.11 ± 2.37 nM	0.93 ± 0.67 nM	0.93 ± 0.67 nM	> 100000 nM	1.57 ± 1.71 nM	
Cn1ncc2cc(-c3cnc(N)c(Cl)c3N3CCC4(CCNC4=O)CC3)ccc21 [CCT-151921]	19.4 ± 33.2 nM	3.9 ± 2 nM	3.9 ± 2 nM		2.65 ± 4.5 nM	> 100000 nM
Cc1n[nH]c2ncc(C(=O)N3CCC[C@H]3c3ccc(Cl)cc3)cc12 [MSC-2530818]	4.48 ± 4.84 nM	1.21 ± 0.77 nM	1.21 ± 0.77 nM	87000 ± 6000 nM	1.8 ± 1.99 nM	
